Key:
[1] = Cytotoxicity against human RXF393 cells assessed as growth level at 10 uM after 48 hrs by SRB assay; format: functional, RXF 393
[2] = Cytotoxicity against human PC3 cells assessed as growth level at 10 uM after 48 hrs by SRB assay; format: functional, PC-3
[3] = Cytotoxicity against human SF295 cells assessed as growth level at 10 uM after 48 hrs by SRB assay; format: functional, SF-295
[4] = Cytotoxicity against human OVCAR5 cells assessed as growth level at 10 uM after 48 hrs by SRB assay; format: functional, OVCAR-5
[5] = system: HT-29; experiment: Cytotoxicity against human HT-29 cells after 48 hrs by SRB assay; format: functional; settings: HT-29, 48 h
[6] = system: U-251; experiment: Cytotoxicity against human U251 cells assessed as growth level at 10 uM after 48 hrs by SRB assay; format: functional
[7] = system: NCI-H322M; experiment: Cytotoxicity against human NCI-H322M cells after 48 hrs by SRB assay; format: functional
[8] = system: K562; experiment: Cytotoxicity against human K562 cells assessed as growth level at 10 uM after 48 hrs by SRB assay; format: functional
[9] = system: Malme-3M; experiment: Cytotoxicity against human MALME-3M cells assessed as growth level at 10 uM after 48 hrs by SRB assay; format: functional
[10] = system: NCI-H23; experiment: Cytotoxicity against human NCI-H23 cells after 48 hrs by SRB assay; format: functional; settings: NCI-H23, 48 h
[11] = system: SR; experiment: Cytotoxicity against human SR cells after 48 hrs by SRB assay; format: functional; settings: for CC50: read-out: LC50 (the source's name)
[12] = Cytotoxicity against human HOP92 cells assessed as growth level at 10 uM after 48 hrs by SRB assay; format: functional, HOP-92
[13] = Cytotoxicity against human LOXIMVI cells after 48 hrs by SRB assay; format: functional; settings: LOX IMVI
[14] = Cytotoxicity against human HCT15 cells assessed as growth level at 10 uM after 48 hrs by SRB assay; format: functional, HCT-15
[15] = Cytotoxicity against human UO31 cells assessed as growth level at 10 uM after 48 hrs by SRB assay; format: functional, UO-31
[16] = Cytotoxicity against human NCI-ADR-RES cells assessed as growth level at 10 uM after 48 hrs by SRB assay; format: functional
[17] = system: T47D; experiment: Cytotoxicity against human T47D cells after 48 hrs by SRB assay; format: functional
[18] = system: KM12; experiment: Cytotoxicity against human KM12 cells after 48 hrs by SRB assay; format: functional; settings: KM12, 48 h
[19] = system: K562; experiment: Cytotoxicity against human K562 cells after 48 hrs by SRB assay; format: functional; settings: K562, 48 h
[20] = system: NCI-H322M; experiment: Cytotoxicity against human NCI-H322M cells assessed as growth level at 10 uM after 48 hrs by SRB assay; format: functional
[21] = Cytotoxicity against human HCC2998 cells assessed as growth level at 10 uM after 48 hrs by SRB assay; format: functional, HCC 2998
[22] = Cytotoxicity against human OVCAR4 cells assessed as growth level at 10 uM after 48 hrs by SRB assay; format: functional, OVCAR-4
[23] = system: NCI-H226; experiment: Cytotoxicity against human NCI-H226 cells after 48 hrs by SRB assay; format: functional; settings: NCI-H226, 48 h
[24] = system: SN12C; experiment: Cytotoxicity against human SN12C cells after 48 hrs by SRB assay; format: functional
[25] = Cytotoxicity against human UACC62 cells assessed as growth level at 10 uM after 48 hrs by SRB assay; format: functional, UACC-62
[26] = system: NCI-H23; experiment: Cytotoxicity against human NCI-H23 cells assessed as growth level at 10 uM after 48 hrs by SRB assay; format: functional
[27] = system: ACHN; experiment: Cytotoxicity against human ACHN cells after 48 hrs by SRB assay; format: functional
[28] = system: CCRF-CEM; experiment: Cytotoxicity against human CCRF-CEM cells after 48 hrs by SRB assay; format: functional; settings: for CC50: read-out: LC50 (the source's name)
[29] = system: NCI-H522; experiment: Cytotoxicity against human NCI-H522 cells after 48 hrs by SRB assay; format: functional; settings: NCI-H522, 48 h
[30] = system: SK-MEL-2; experiment: Cytotoxicity against human SK-MEL-2 cells after 48 hrs by SRB assay; format: functional; settings: SK-MEL-2, 48 h
[31] = system: SK-MEL-5; experiment: Cytotoxicity against human SK-MEL-5 cells assessed as growth level at 10 uM after 48 hrs by SRB assay; format: functional
[32] = system: ACHN; experiment: Cytotoxicity against human ACHN cells assessed as growth inhibition at 10 uM after 48 hrs by SRB assay; format: functional; settings: read-out: GI
[33] = Cytotoxicity against human RPMI8226 cells assessed as growth inhibition at 10 uM after 48 hrs by SRB assay; format: functional; settings: RPMI-8226, 48 h, read-out: GI
[34] = Cytotoxicity against human SW620 cells assessed as growth inhibition at 10 uM after 48 hrs by SRB assay; format: functional; settings: SW-620, 48 h, read-out: GI
[35] = Cytotoxicity against human OVCAR3 cells assessed as growth inhibition at 10 uM after 48 hrs by SRB assay; format: functional; settings: OVCAR-3, 48 h, read-out: GI
[36] = system: SR; experiment: Cytotoxicity against human SR cells assessed as growth inhibition at 10 uM after 48 hrs by SRB assay; format: functional; settings: read-out: GI
[37] = Cytotoxicity against human SF268 cells assessed as growth inhibition at 10 uM after 48 hrs by SRB assay; format: functional; settings: SF-268, 48 h, read-out: GI
[38] = system: NCI-H23; experiment: Cytotoxicity against human NCI-H23 cells assessed as growth inhibition at 10 uM after 48 hrs by SRB assay; format: functional; settings: NCI-H23, 48 h, read-out: GI
[39] = system: SN12C; experiment: Cytotoxicity against human SN12C cells assessed as growth inhibition at 10 uM after 48 hrs by SRB assay; format: functional; settings: read-out: GI
[40] = Cytotoxicity against human UACC257 cells assessed as growth inhibition at 10 uM after 48 hrs by SRB assay; format: functional; settings: UACC-257, 48 h, read-out: GI
[41] = system: CCRF-CEM; experiment: Cytotoxicity against human CCRF-CEM cells assessed as growth inhibition at 10 uM after 48 hrs by SRB assay; format: functional; settings: read-out: GI
[42] = Cytotoxicity against human MOLT4 cells assessed as growth inhibition at 10 uM after 48 hrs by SRB assay; format: functional; settings: MOLT-4, 48 h, read-out: GI

## C=C1CC[C@@H]2[C@](C)(COC(C)=O)[C@H](OC(C)=O)CC[C@@]2(C)[C@@H]1CC(Nc1ccc(S(=O)(=O)NC(C)=O)cc1)C1=CCOC1=O (mixture of isomers)
[1]
  Activity: -75.81%
[2]
  Activity: 0.69%
[3]
  Activity: 58.44%
[4]
  Activity: -40.14%
[5]
  GI50: 1.57 µM
  LC50: 17.9 µM
  TGI: 3.55 µM
[6]
  Activity: -65.49%
[7]
  GI50: 10.3 µM
  LC50: 40.1 µM
  TGI: 20.3 µM
[8]
  Activity: 4.81%
[9]
  Activity: -43.58%
[10]
  GI50: 5.52 µM
  LC50: 46.4 µM
  TGI: 17.4 µM
[11]
  GI50: 0.99 µM
  TGI: 18.1 µM
  CC50: > 75 µM
[12]
  Activity: 20.95%
[13]
  GI50: 1.25 µM
  LC50: 4.67 µM
  TGI: 2.42 µM
[14]
  Activity: -49.53%
[15]
  Activity: -58.46%
[16]
  Activity: 11.87%
[17]
  GI50: 2.46 µM
  LC50 (concentration killing 50% of cells): > 75 µM
  TGI: 12 µM
[18]
  GI50: 5.11 µM
  LC50: 40.5 µM
  TGI: 15.9 µM
[19]
  GI50: 2.58 µM
  LC50 (50% lethal concentration): > 75 µM
  TGI: 17.6 µM
[20]
  Activity: 35.29%
[21]
  Activity: -12.74%
[22]
  Activity: 26.08%
[23]
  GI50: 1.92 µM
  LC50: > 75 µM
  TGI: 4.62 µM
[24]
  GI50: 1.78 µM
  LC50 (concentration killing 50% of cells): 39.2 µM
  TGI: 5.4 µM
[25]
  Activity: -12.47%
[26]
  Activity: 7.36%
[27]
  GI50: 7.54 µM
  LC50: 36.3 µM
  TGI: 16.5 µM
[28]
  GI50: 1.93 µM
  TGI: 6.26 µM
  CC50: > 75 µM
[29]
  GI50: 1.44 µM
  LC50: 24.1 µM
  TGI: 4.42 µM
[30]
  GI50: 8.68 µM
  LC50 (concentration causing 50% net cell kill): 42.1 µM
  TGI: 19.1 µM
[31]
  Activity: 7.36%

## C=C1CC[C@@H]2[C@](C)(CO)[C@H](O)CC[C@@]2(C)[C@@H]1C/C=C1/C(=O)OC[C@H]1O [ANDROGRAPHOLIDE]
[32]
  inhibition of growth at 10 µM: 10.2%
[1]
  Activity: 125.24%
[2]
  Activity: 93.4%
[3]
  Activity: 113.89%
[4]
  Activity: 104.24%
[6]
  Activity: 75.79%
[33]
  inhibition of growth at 10 µM: 16.7%
[8]
  Activity: 65.53%
[9]
  Activity: 99.78%
[34]
  inhibition of growth at 10 µM: 55.7%
[12]
  Activity: 107.7%
[14]
  Activity: 61.89%
[15]
  Activity: 89.6%
[35]
  inhibition of growth at 10 µM: 40.8%
[16]
  Activity: 83.75%
[20]
  Activity: 92.74%
[36]
  inhibition of growth at 10 µM: 20.5%
[37]
  inhibition of growth at 10 µM: 2.34%
[21]
  Activity: 114.39%
[22]
  Activity: 82.87%
[38]
  inhibition of growth at 10 µM: 2.11%
[25]
  Activity: 69.92%
[39]
  inhibition of growth at 10 µM: 18.3%
[40]
  inhibition of growth at 10 µM: 23.5%
[26]
  Activity: 97.89%
[41]
  inhibition of growth at 10 µM: 76.5%
[31]
  Activity: 77.27%
[42]
  inhibition of growth at 10 µM: 1.89%

## C=C1CC[C@@H]2[C@](C)(COC(C)=O)[C@H](OC(C)=O)CC[C@@]2(C)[C@@H]1CC(Sc1ccccc1)C1=CCOC1=O (mixture of isomers)
[1]
  Activity: 5.01%
[2]
  Activity: 36.43%
[3]
  Activity: 65.88%
[4]
  Activity: 39.82%
[5]
  GI50: 1.77 µM
  LC50: 8.03 µM
  TGI: 3.77 µM
[6]
  Activity: 22.94%
[7]
  GI50: 2.93 µM
  LC50: > 100 µM
  TGI: 10.4 µM
[8]
  Activity: 3.95%
[9]
  Activity: 16.83%
[10]
  GI50: 1.78 µM
  LC50: 7.57 µM
  TGI: 3.67 µM
[11]
  GI50: 0.55 µM
  TGI: 3.66 µM
  CC50: > 100 µM
[12]
  Activity: 24.5%
[13]
  GI50: 0.29 µM
  LC50: 3.97 µM
  TGI: 1.19 µM
[14]
  Activity: -38.36%
[15]
  Activity: 35.65%
[16]
  Activity: 10.07%
[17]
  GI50: 2.01 µM
  LC50 (concentration killing 50% of cells): > 100 µM
  TGI: 8.32 µM
[18]
  GI50: 1.4 µM
  LC50: 6.25 µM
  TGI: 2.96 µM
[19]
  GI50: 0.69 µM
  LC50 (50% lethal concentration): 45.7 µM
  TGI: 3.69 µM
[20]
  Activity: 67.11%
[21]
  Activity: 44.69%
[22]
  Activity: 100.23%
[23]
  GI50: 2.3 µM
  LC50: 39.4 µM
  TGI: 5.98 µM
[24]
  GI50: 2.1 µM
  LC50 (concentration killing 50% of cells): > 100 µM
  TGI: 7.07 µM
[25]
  Activity: -1.75%
[26]
  Activity: 24.46%
[27]
  GI50: 1.34 µM
  LC50: 6.01 µM
  TGI: 2.84 µM
[28]
  GI50: 0.26 µM
  TGI: 1.19 µM
  CC50: > 100 µM
[29]
  GI50: 1.35 µM
  LC50: 6.57 µM
  TGI: 2.98 µM
[30]
  GI50: 2.25 µM
  LC50 (concentration causing 50% net cell kill): 9.36 µM
  TGI: 4.59 µM
[31]
  Activity: 13.51%
